Source: the NIST ThermoML archive (doi:10.1016/j.jct.2015.12.031)

Legend:
[1] = refractive index (Na D-line) (dimensionless); mn = molality of the nth substance listed, in mol/kg; conditions: 86.5 kPa, Liquid, Standard Abbe refractometry
[2] = mn = molality of the nth substance listed, in mol/kg; conditions: 288.15 K, 86.5 kPa, Liquid; for speed of sound: Frequency=3 MHz, Sing-around technique in a fixed-path interferometer; for mass density: Vibrating tube method

c1ccsc1 [thiophene] + CCCCCCCC
refractive index, [1]
Conditions	288.15 K	293.15 K	298.15 K	303.15 K
m1 = 0.0158	1.4002	1.3976	1.3952	1.3926
m1 = 0.0275	1.4003	1.3977	1.3953	1.3927
m1 = 0.0517	1.4004	1.3978	1.3954	1.3928
m1 = 0.0847	1.4005	1.398	1.3956	1.393
m1 = 0.0952	1.4006	1.3981	1.3957	1.393
m1 = 0.1081	1.4006	1.3982	1.3957	1.3931
m1 = 0.1182	1.4007	1.3982	1.3958	1.3932
m1 = 0.1353	1.4008	1.3983	1.3959	1.3933
m1 = 0.1494	1.4008	1.3984	1.396	1.3934
m1 = 0.1577	1.4009	1.3985	1.3961	1.3934
m1 = 0.1729	1.401	1.3985	1.3961	1.3935
m1 = 0.1797	1.401	1.3986	1.3962	1.3935
m1 = 0.1932	1.4011	1.3986	1.3962	1.3936
m1 = 0.2031	1.4012	1.3987	1.3963	1.3936
m1 = 0.3004	1.4017	1.3992	1.3968	1.3941
m1 = 0.4002	1.4023	1.3997	1.3973	1.3947
m1 = 0.5026	1.4028	1.4003	1.3978	1.3953
m1 = 0.5823	1.4033	1.4007	1.3982	1.3957

[2]
Conditions	mass density [kg/m3]	speed of sound [m/s]
m1 = 0.0158	707.297	1214.4
m1 = 0.0275	707.523	1214.4
m1 = 0.0517	707.987	1214.4
m1 = 0.0847	708.616	1214.3
m1 = 0.0952	708.817	1214.3
m1 = 0.1081	709.062	1214.3
m1 = 0.1182	709.253	1214.3
m1 = 0.1353	709.577	1214.2
m1 = 0.1494	709.844	1214.2
m1 = 0.1577	710	1214.2
m1 = 0.1729	710.288	1214.2
m1 = 0.1797	710.414	1214.2
m1 = 0.1932	710.67	1214.2
m1 = 0.2031	710.855	1214.1
m1 = 0.3004	712.662	1214
m1 = 0.4002	714.496	1213.8
m1 = 0.5026	716.351	1213.6
m1 = 0.5823	717.77	1213.5
